Assay results reported in ChEMBL document CHEMBL1201862, “PubChem BioAssay data set” (2004).
Where “and” joins values, the source holds several entries; their conditions need not be identical. Equal values may be shown once.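 A five-concentration, 48-hour dose response in 96-well plates underlies each endpoint, interpolated linearly between surrounding concentrations. The concentration for 50% growth inhibition is given as GI50.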 Calls of active or inactive are those of the source. Cut-off read from the data, not from the text of the source: active = GI50 up to about 1.1 µM and inactive = higher.

Key:
Assay in all cases: growth of human tumour cells (NCI), 48 h
[1] = tested on: M14
[2] = tested on: TK-10
[3] = tested on: MDA-N
[4] = tested on: CCRF-CEM
[5] = tested on: SNB-19
[6] = tested on: SN12C
[7] = tested on: UO-31
[8] = tested on: SF-539
[9] = tested on: HCT-15
[10] = tested on: U-251
[11] = tested on: SF-295
[12] = tested on: SNB-75
[13] = tested on: HOP-92
[14] = tested on: CAKI-1
[15] = tested on: HT-29
[16] = tested on: COLO 205
[17] = tested on: HCC 2998
[18] = tested on: RPMI-8226
[19] = tested on: NCI-H460
[20] = tested on: RXF 393

| SMILES | GI50 [1] | GI50 [2] | GI50 [3] | GI50 [4] | GI50 [5] | GI50 [6] | GI50 [7] | GI50 [8] | GI50 [9] | GI50 [10] | GI50 [11] | GI50 [12] | GI50 [13] | GI50 [14] | GI50 [15] | GI50 [16] | GI50 [17] | GI50 [18] | GI50 [19] | GI50 [20] |
| --- | --- | --- | --- | --- | --- | --- | --- | --- | --- | --- | --- | --- | --- | --- | --- | --- | --- | --- | --- | --- |
| O=C(NN=C1CCCCC1)Nc1ccccc1Cl | 29.8 µM (inactive) | > 100 µM (inactive) | 18.1 µM (inactive) | 42 µM (inactive) | 64.3 µM (inactive) | 57.5 µM (inactive) | 61.9 µM (inactive) | 32.5 µM (inactive) | 39.6 µM | 84.5 µM (inactive) | 33.3 µM (inactive) | 2.82 µM (inactive) | 23.6 µM (inactive) | 92.7 µM (inactive) | 36.3 µM (inactive) | 31.3 µM (inactive) | 59.3 µM (inactive) | 45.9 µM (inactive) | 42.5 µM (inactive) |  |
| c1ccc2c(c1)c1c(n2CCOCCN2CCCC2)CCCC1 | 15.6 µM (inactive) | 19.5 µM (inactive) | 19.4 µM (inactive) | 20.9 µM (inactive) |  | 17.5 µM (inactive) | 12.8 µM (inactive) | 14.5 µM (inactive) | 17 µM | 13.1 µM (inactive) | 37.2 µM (inactive) | 27.3 µM (inactive) | 27.7 µM (inactive) | 27.2 µM (inactive) | 20 µM (inactive) | 19.5 µM (inactive) | 16.6 µM (inactive) | 18.2 µM (inactive) | 15 µM (inactive) |  |
| NC(=S)N/N=C1\CCc2ccccc2C1 | > 100 µM (inactive) | > 100 µM (inactive) | > 100 µM (inactive) | 70.8 µM (inactive) | > 100 µM (inactive) | > 100 µM (inactive) | > 100 µM (inactive) | > 100 µM (inactive) | > 100 µM | > 100 µM (inactive) | > 100 µM (inactive) |  | > 100 µM (inactive) |  | > 100 µM (inactive) | > 100 µM (inactive) | > 100 µM (inactive) | > 100 µM (inactive) | > 100 µM (inactive) | 80.4 µM (inactive) |
| O=C1/C(=C\c2cccc(Oc3ccccc3)c2)S(=O)(=O)C(c2ccccc2)N1Cc1ccccc1 (stereo not drawn) | 27.4 µM (inactive) | 33.6 µM (inactive) | 29.6 µM (inactive) | 24.5 µM (inactive) | 21.4 µM (inactive) | 26.6 µM (inactive) | 18.7 µM (inactive) | 36.4 µM (inactive) | 15.6 µM | 33.7 µM (inactive) | 55.8 µM (inactive) |  | 19.3 µM (inactive) | 26.6 µM (inactive) |  | 27 µM (inactive) | 28.7 µM (inactive) |  | 15.1 µM (inactive) | 27 µM (inactive) |
| Cc1ccc(SC2C(=O)C3CC(OCc4ccccc4)C2(C)C3(C)C)cc1 (stereo not drawn) | > 100 µM (inactive) | > 100 µM (inactive) | > 100 µM (inactive) | 73.8 µM (inactive) | > 100 µM (inactive) | > 100 µM (inactive) | > 100 µM (inactive) | > 100 µM (inactive) | 29.1 µM | 39.3 µM (inactive) | > 100 µM (inactive) |  | 29.6 µM (inactive) |  | 41.9 µM (inactive) |  | > 100 µM (inactive) |  | > 100 µM (inactive) | 52 µM (inactive) |
| C=CCOC(=O)CCCCCCCCCCCCCCCOC(=O)c1c(CCC[C@@H](C)O[Si](C)(C)C(C)(C)C)nc([O-])[n+]2c1CC[C@H]2CC1(CC/C=C\[C@H](CC)O[Si](C(C)C)(C(C)C)C(C)C)OCCO1 | > 100 µM (inactive) | > 100 µM (inactive) | 60.8 µM (inactive) | 14.4 µM (inactive) | 80.2 µM (inactive) | 34 µM (inactive) | 28.4 µM (inactive) | > 100 µM (inactive) | 46 µM | 17.2 µM (inactive) | 48.8 µM (inactive) | > 100 µM (inactive) | 18.2 µM (inactive) | > 100 µM (inactive) |  | > 100 µM (inactive) | 73.8 µM (inactive) | 48.8 µM (inactive) | > 100 µM (inactive) |  |
| CC(=O)OCC1OC(SC2=NC(=O)CS2)C(OC(C)=O)C(OC(C)=O)C1OC(C)=O (stereo not drawn) | > 100 µM (inactive) | 53.7 µM (inactive) | > 100 µM (inactive) | 31.5 µM (inactive) and 32.3 µM (inactive) | > 100 µM (inactive) | > 100 µM (inactive) | > 100 µM (inactive) | > 100 µM (inactive) |  |  | > 100 µM (inactive) | > 100 µM (inactive) |  | 68.7 µM (inactive) | > 100 µM (inactive) |  | > 100 µM (inactive) | 51.8 µM (inactive) and 27.4 µM (inactive) | > 100 µM (inactive) | > 100 µM (inactive) |
| CC1(C)O[C@@H](CO)[C@H]([C@@]23OC[C@H]4OC(C)(C)OC4[C@@H]2OC(C)(C)O3)O1 (stereo partly drawn) | > 100 µM (inactive) |  | > 100 µM (inactive) |  | > 100 µM (inactive) | > 100 µM (inactive) | > 100 µM (inactive) |  | > 100 µM | > 100 µM (inactive) | > 100 µM (inactive) | > 100 µM (inactive) | > 100 µM (inactive) |  | > 100 µM (inactive) | > 100 µM (inactive) | > 100 µM (inactive) | > 100 µM (inactive) | > 100 µM (inactive) | > 100 µM (inactive) |
| O=c1[nH][nH]c(=O)n1Cc1cccc(Cn2c(=O)[nH][nH]c2=O)c1 | > 100 µM (inactive) | > 100 µM (inactive) | > 100 µM (inactive) | > 100 µM (inactive) | > 100 µM (inactive) | > 100 µM (inactive) | > 100 µM (inactive) | > 100 µM (inactive) | > 100 µM | > 100 µM (inactive) |  | > 100 µM (inactive) |  | > 100 µM (inactive) | > 100 µM (inactive) | > 100 µM (inactive) | > 100 µM (inactive) | > 100 µM (inactive) | > 100 µM (inactive) | > 100 µM (inactive) |
| Cc1ccc(/N=N/C(=N/NC(=O)c2cc(Cl)ccc2O)c2ccc(N(CCC#N)CCC#N)cc2C)cc1 | 30.6 µM (inactive) | 21.2 µM (inactive) | 30.6 µM (inactive) | 26 µM (inactive) | 25.5 µM (inactive) | 28.4 µM (inactive) | 24.8 µM (inactive) | 18.5 µM (inactive) | 32.1 µM | 18.2 µM (inactive) | 21.3 µM (inactive) | 26.7 µM (inactive) |  | 41.4 µM (inactive) | 14.6 µM (inactive) | 12.4 µM (inactive) | 24.1 µM (inactive) | 8.36 µM (inactive) | 21.8 µM (inactive) | 18.2 µM (inactive) |
| O=C(Cc1ccccc1)NNc1nc(NNC(=O)c2ccncc2)nc(Nc2ccccc2)n1 | > 10 µM (inactive) | > 10 µM (inactive) | > 10 µM (inactive) | > 10 µM (inactive) |  | > 10 µM (inactive) | 1.12 µM (active) | > 10 µM (inactive) | > 10 µM | > 10 µM (inactive) |  | > 10 µM (inactive) | > 10 µM (inactive) | > 10 µM (inactive) | > 10 µM (inactive) | > 10 µM (inactive) | > 10 µM (inactive) | > 10 µM (inactive) | > 10 µM (inactive) |  |
| COc1ccc(C2OC(=O)c3c2ccc2ccccc32)c(C)c1 (stereo not drawn) | 1.32 µM (inactive) | 2.94 µM (inactive) | 0.499 µM (active) |  | 4.8 µM (inactive) | 1.21 µM (inactive) | 5.4 µM (inactive) |  | 1.93 µM | 3.43 µM (inactive) |  | 2.93 µM (inactive) | 8.04 µM (inactive) |  | 3.37 µM (inactive) | 1.15 µM (inactive) | 1.02 µM (active) | 3.18 µM (inactive) | 3.3 µM (inactive) | 2.69 µM (inactive) |
| CN(C)c1c(C2CC(O)C(CO)O2)c(=O)c1=O (stereo not drawn) | > 100 µM (inactive) | > 100 µM (inactive) | > 100 µM (inactive) |  | > 100 µM (inactive) | > 100 µM (inactive) | > 100 µM (inactive) | > 100 µM (inactive) | > 100 µM | > 100 µM (inactive) | > 100 µM (inactive) | > 100 µM (inactive) | > 100 µM (inactive) |  | > 100 µM (inactive) |  | > 100 µM (inactive) | > 100 µM (inactive) | > 100 µM (inactive) |  |
| Cn1nc2n(c1=O)CCCN2 |  | > 100 µM (inactive) | > 100 µM (inactive) | > 100 µM (inactive) | > 100 µM (inactive) | > 100 µM (inactive) |  | > 100 µM (inactive) | > 100 µM | > 100 µM (inactive) | > 100 µM (inactive) | > 100 µM (inactive) | > 100 µM (inactive) |  | > 100 µM (inactive) | > 100 µM (inactive) | > 100 µM (inactive) | > 100 µM (inactive) | > 100 µM (inactive) | > 100 µM (inactive) |
| COc1cccc(-c2cc(O)c3cc(C)cnc3n2)c1 | 0.0543 µM (active) |  | 0.0106 µM (active) | 0.0366 µM (active) | 0.0667 µM (active) | 0.0538 µM (active) | 1.26 µM (inactive) | 0.0371 µM (active) | 0.251 µM | 0.0473 µM (active) | 0.0405 µM (active) | 0.0188 µM (active) |  | 0.0389 µM (active) | 0.0318 µM (active) | 0.0449 µM (active) | 1.51 µM (inactive) | 0.0421 µM (active) | 0.0458 µM (active) | 0.0211 µM (active) |
| CC(=O)NCC1(c2ccccc2)CCN(CC2COc3ccccc3O2)CC1 (stereo not drawn) [ACOXATRINE] | > 100 µM (inactive) | > 100 µM (inactive) | > 100 µM (inactive) | > 100 µM (inactive) | > 100 µM (inactive) | > 100 µM (inactive) | > 100 µM (inactive) | > 100 µM (inactive) | > 100 µM | > 100 µM (inactive) | > 100 µM (inactive) | > 100 µM (inactive) |  | > 100 µM (inactive) | 39.4 µM (inactive) | > 100 µM (inactive) | > 100 µM (inactive) | > 100 µM (inactive) | > 100 µM (inactive) | > 100 µM (inactive) |
